IC50 and GI50 data for eleven compounds are collected here from patent publication US20250018047A1, “METHODS AND COMPOSITIONS FOR TARGETED PROTEIN DEGRADATION” (Ranok Therapeutics (Hangzhou) Co. Ltd., priority 2021, published 2025).

The target of one experiment is T1, KRAS(G12D)/SOS1 (Homo sapiens, UniProt P01116, G12D).
T1 construct: purchased Cisbio 63ADK000CB16PEG
The experiment in a line: KRAS(G12D)/SOS1 homogeneous time-resolved fluorescence (HTRF) assay. The format is binding. The following applies: absence of GTP, 4° C. for 3 hr. How it is done: The test compound was mixed and incubated with reaction components, incubated in a sealed plate at 4° C. for 3 hr and fluorescence was measured using a PerkinElmer Envision plate reader.

In experiment [1] the target is BA/F3-KRAS(G12D) murine pro-B cell line stably expressing KRAS(G12D) (Homo sapiens, UniProt P01116, G12D, cells depend on it). The experiment in a line: CellTiter-Glo cancer cell line proliferation assay, BA/F3-KRAS(G12D). The format is cell-based. The following applies: 24 hr, read-out: BAF3 at 24 hrs, IC50. How it is done: The following cancer cell lines were employed: AsPC-1 human pancreatic adenocarcinoma (ATCC, #CRL-1682); A-427 human lung carcinoma (ATCC, #HTB-53); BA/F3-KRAS(G12D) murine pro-B cell line stably expressing KRAS(G12D) (Precedo, Hefei, China). Cell lines were cultured according to ATCC and recommendations. BA/F3-KRAS(G12D) cells were cultured in RPMI 1640 media with 10% fetal calf serum, 100 units/mL penicillin and […] streptomycin, and 1% glutamine.
BA/F3-KRAS(G12D) murine pro-B cell line stably expressing KRAS(G12D), sequence (P01116 whole entry G12D): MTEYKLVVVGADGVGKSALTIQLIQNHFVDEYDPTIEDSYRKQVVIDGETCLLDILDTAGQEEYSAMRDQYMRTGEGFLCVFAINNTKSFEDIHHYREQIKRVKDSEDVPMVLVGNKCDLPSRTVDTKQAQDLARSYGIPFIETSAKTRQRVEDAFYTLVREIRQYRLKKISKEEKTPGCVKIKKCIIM
CellTiter-Glo® Reagent Cancer Cell Line Proliferation Assays
Cells were plated in 96-well tissue culture plates at 4,000 cells/well and incubated at 37° C./5% CO2 for 24 hr in 100 μl of media. 3-fold serial dilutions of each test compound were prepared ranging from 20 μM to 1.02 nM. Cells were then treated with test compounds at various concentrations with a final concentration of 0.5% DMSO/well, and then incubated at 37° C./5% CO2 for 24 hr. 100 μl of CellTiter-Glo® Reagent (Promega Corporation, Madison, WI) was added to each well and processed according manufacturer's protocol. Results were analyzed and IC50-values were calculated in GraphPad 7 software.
Background: ATP-based viability assays read luminescence as a measure of living cells.

Experiment [2] has as its system AsPC-1 human pancreatic adenocarcinoma. The experiment in a line: CellTiter-Glo cancer cell line proliferation assay, AsPC-1. The format is cell-based. To be noted: Homo sapiens, ASPC1, 24 hr. The procedure, abridged: (§1)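 Cells plated at 4,000/well, grown 24 h at 37 °C/5% CO2, then exposed to compound concentration series (0.5% DMSO final) for 24 h. Viability read by CellTiter-Glo luminescence; IC50 values calculated.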

The subject of experiment [3] is A-427 human lung carcinoma. The experiment in a line: CellTiter-Glo cancer cell line proliferation assay, A-427. The format is cell-based. To be noted: Homo sapiens, A-427, 24 hr, read-out: A427 at 24 hrs, IC50. The procedure, abridged: as §1

SMILES strings stand for the structures. pIC50: −log10 of the molar value. Structures can show the parent of a compound that is named as a salt. Bounds are passed on as bounds.

T1 sequence (P01116 1-188 isoform P01116-2 G12D): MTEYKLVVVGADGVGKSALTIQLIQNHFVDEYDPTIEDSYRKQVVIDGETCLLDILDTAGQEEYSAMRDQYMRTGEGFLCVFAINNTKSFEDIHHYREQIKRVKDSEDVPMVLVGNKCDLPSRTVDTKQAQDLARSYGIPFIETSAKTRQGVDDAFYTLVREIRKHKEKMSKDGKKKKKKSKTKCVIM

The term pIC50 denotes −log10 of the IC50, conventionally taken in molar units. Regarding `C#Cc1cccc2cccc(-c3ncc4c(N5CC6CCC(C5)N6)nc(OCCN5CCN(Cc6ccc7c(c6)C(=O)N(C6CCC(=O)NC6=O)C7=O)CC5)nc4c3F)c12` (centres unmarked) [Compound 2, 5-((4-(2-((4-(3,8-diazabicyclo[3.2.1]octan-3-yl)-7-(8-ethynylnaphthalen-1-yl)-8-fluoropyrido[4,3-d]pyrimidin-2-yl)oxy)ethyl)piperazin-1-yl)methyl)-2-(2,6-dioxopiperidin-3-yl)isoindoline-1,3-dione hydrochloride], the pIC50 was more than 7.00 against KRAS(G12D)/SOS1, less than 6.00 in experiment [2] and less than 6.00 in experiment [3]. Also, in experiment [1], the GI50 was more than 1 µM.

Turning to `C#Cc1cccc2cccc(-c3ncc4c(N5CC6CCC(C5)N6)nc(OCC5(CN6CCN(Cc7ccc8c(c7)CN(C7CCC(=O)NC7=O)C8=O)CC6)CC5)nc4c3F)c12` (centres unmarked) [Compound 31, 3-(5-((4-((1-(((4-(3,8-diazabicyclo[3.2.1]octan-3-yl)-7-(8-ethynylnaphthalen-1-yl)-8-fluoropyrido[4,3-d]pyrimidin-2-yl)oxy)methyl)cyclopropyl)methyl)piperazin-1-yl)methyl)-1-oxoisoindolin-2-yl)piperidine-2,6-dione formate], the pIC50 is more than 7.00 against KRAS(G12D)/SOS1, less than 6.00 in experiment [2] and less than 6.00 in experiment [3]. For the same compound, in experiment [1], the GI50 was more than 1 µM.

With `CN1C[C@@H](N2CCC(C(=O)NCCOc3ccc4c(c3)C(=O)N(C3CCC(=O)NC3=O)C4=O)CC2)C[C@H]1COc1nc(N2CC3CCC(C2)N3)c2cnc(-c3cccc4cccc(Cl)c34)c(F)c2n1` (stereo partly drawn) [Compound 12, 1-((3S,5S)-5-(((4-(3,8-diazabicyclo[3.2.1]octan-3-yl)-7-(8-chloronaphthalen-1-yl)-8-fluoropyrido[4,3-d]pyrimidin-2-yl)oxy)methyl)-1-methylpyrrolidin-3-yl)-N-(2-((2-(2,6-dioxopiperidin-3-yl)-1,3-dioxoisoindolin-5-yl)oxy)ethyl)piperidine-4-carboxamide hydrochloride], the pIC50 was 6.00 to 7.00 at KRAS(G12D)/SOS1, less than 6.00 in experiment [2] and less than 6.00 in experiment [3]. The GI50 in experiment [1] was more than 1 µM.

In the case of `CN1C[C@@H](N2CCC(C(=O)NCCOCCOc3ccc4c(c3)C(=O)N(C3CCC(=O)NC3=O)C4=O)CC2)C[C@H]1COc1nc(N2CC3CCC(C2)N3)c2cnc(-c3cccc4ccccc34)c(F)c2n1` (stereo partly drawn) [Compound 21, 1-((3S,5S)-5-(((4-(3,8-diazabicyclo[3.2.1]octan-3-yl)-8-fluoro-7-(naphthalen-1-yl)pyrido[4,3-d]pyrimidin-2-yl)oxy)methyl)-1-methylpyrrolidin-3-yl)-N-(2-(2-((2-(2,6-dioxopiperidin-3-yl)-1,3-dioxoisoindolin-5-yl)oxy)ethoxy)ethyl)piperidine-4-carboxamide formate], the pIC50 was 6.00 to 7.00 against KRAS(G12D)/SOS1, less than 6.00 in experiment [2] and less than 6.00 in experiment [3]. The GI50 in experiment [1] was more than 1 µM.

Take `C#Cc1cccc2cccc(-c3ncc4c(N5CC6CCC(C5)N6)nc(OC[C@@H]5CC[C@H](CN6CCN(CC7CCN(c8ccc9c(c8)C(=O)N(C8CCC(=O)NC8=O)C9=O)CC7)CC6)N5C)nc4c3F)c12` (stereo partly drawn) [Compound 13, 5-(4-((4-(((2R,5S)-5-(((4-(3,8-diazabicyclo[3.2.1]octan-3-yl)-7-(8-ethynylnaphthalen-1-yl)-8-fluoropyrido[4,3-d]pyrimidin-2-yl)oxy)methyl)-1-methylpyrrolidin-2-yl)methyl)piperazin-1-yl)methyl)piperidin-1-yl)-2-(2,6-dioxopiperidin-3-yl)isoindoline-1,3-dione hydrochloride]: the pIC50 against KRAS(G12D)/SOS1 was more than 7.00; in experiment [2] it was less than 6.00; in experiment [3], less than 6.00. Also, the GI50 in experiment [1] lay within 0.1 to 1 µM.

Turning to `CN1C[C@@H](N2CCC(C(=O)NCCOc3ccc4c(c3)C(=O)N(C3CCC(=O)NC3=O)C4=O)CC2)C[C@H]1COc1nc(N2CC3CCC(C2)N3)c2cnc(-c3cccc4ccccc34)c(F)c2n1` (stereo partly drawn) [Compound 22, 1-((3S,5S)-5-(((4-(3,8-diazabicyclo[3.2.1]octan-3-yl)-8-fluoro-7-(naphthalen-1-yl)pyrido[4,3-d]pyrimidin-2-yl)oxy)methyl)-1-methylpyrrolidin-3-yl)-N-(2-((2-(2,6-dioxopiperidin-3-yl)-1,3-dioxoisoindolin-5-yl)oxy)ethyl)piperidine-4-carboxamide formate], the pIC50 (at KRAS(G12D)/SOS1; in experiment [2]; in experiment [3]) was less than 6.00 in each case. Also, in experiment [1], the GI50 was more than 1 µM.

Regarding `Cc1ncsc1-c1ccc(CNC(=O)[C@@H]2C[C@@H](O)CN2C(=O)[C@@H](NC(=O)C2CCN([C@H]3C[C@@H](COc4nc(N5CC6CCC(C5)N6)c5cnc(-c6cccc7cccc(Cl)c67)c(F)c5n4)N(C)C3)CC2)C(C)(C)C)cc1` [Compound 24, 1-((3S,5S)-5-(((4-(3,8-diazabicyclo[3.2.1]octan-3-yl)-7-(8-chloronaphthalen-1-yl)-8-fluoropyrido[4,3-d]pyrimidin-2-yl)oxy)methyl)-1-methylpyrrolidin-3-yl)-N—((S)-1-((2S,4R)-4-hydroxy-2-((4-(4-methylthiazol-5-yl)benzyl)carbamoyl)pyrrolidin-1-yl)-3,3-dimethyl-1-oxobutan-2-yl)piperidine-4-carboxamide formate], the results for the negative-log IC50 (pIC50) (at KRAS(G12D)/SOS1; in experiment [2]; in experiment [3]) were 6.00 to 7.00, less than 6.00 and less than 6.00, respectively. Further, the GI50 in experiment [1] was more than 1 µM.

In the case of `C#Cc1cccc2cccc(-c3ncc4c(N5CC6CCC(C5)N6)nc(OCC5(CN6CCN(CC7CCN(c8cccc9c8C(=O)N(C8CCC(=O)NC8=O)C9=O)CC7)CC6)CC5)nc4c3F)c12` (centres unmarked) [Compound 29, 4-(4-((4-((1-(((4-(3,8-diazabicyclo[3.2.1]octan-3-yl)-7-(8-ethynylnaphthalen-1-yl)-8-fluoropyrido[4,3-d]pyrimidin-2-yl)oxy)methyl)cyclopropyl)methyl)piperazin-1-yl)methyl)piperidin-1-yl)-2-(2,6-dioxopiperidin-3-yl)isoindoline-1,3-dione formate], the pIC50 at KRAS(G12D)/SOS1 is more than 7.00; in experiment [2], less than 6.00; in experiment [3], less than 6.00. For the same compound, the GI50 in experiment [1] was in the range of 0.1 to 1 µM.

Regarding `Cc1ncsc1-c1ccc(CNC(=O)[C@@H]2C[C@@H](O)CN2C(=O)[C@@H](NC(=O)CCCNC(=O)C2CCN([C@H]3C[C@@H](COc4nc(N5CC6CCC(C5)N6)c5cnc(-c6cccc7cccc(Cl)c67)c(F)c5n4)N(C)C3)CC2)C(C)(C)C)cc1` [Compound 26, 1-((3S,5S)-5-(((4-(3,8-diazabicyclo[3.2.1]octan-3-yl)-7-(8-chloronaphthalen-1-yl)-8-fluoropyrido[4,3-d]pyrimidin-2-yl)oxy)methyl)-1-methylpyrrolidin-3-yl)-N-(4-(((S)-1-((2S,4R)-4-hydroxy-2-((4-(4-methylthiazol-5-yl)benzyl)carbamoyl)pyrrolidin-1-yl)-3,3-dimethyl-1-oxobutan-2-yl)amino)-4-oxobutyl)piperidine-4-carboxamide], the pIC50 was more than 7.00 on KRAS(G12D)/SOS1, less than 6.00 in experiment [2] and less than 6.00 in experiment [3]. Moreover, the GI50 in experiment [1] is more than 1 µM.

As for `C#Cc1cccc2cccc(-c3ncc4c(N5CC6CCC(C5)N6)nc(OC[C@@H]5CC[C@H](CN6CCN(CC7CCN(c8cccc9c8C(=O)N(C8CCC(=O)NC8=O)C9=O)CC7)CC6)N5C)nc4c3F)c12` (stereo partly drawn) [Compound 14, 4-(4-((4-(((2R,5S)-5-(((4-(3,8-diazabicyclo[3.2.1]octan-3-yl)-7-(8-ethynylnaphthalen-1-yl)-8-fluoropyrido[4,3-d]pyrimidin-2-yl)oxy)methyl)-1-methylpyrrolidin-2-yl)methyl)piperazin-1-yl)methyl)piperidin-1-yl)-2-(2,6-dioxopiperidin-3-yl)isoindoline-1,3-dione], the pIC50 at KRAS(G12D)/SOS1 was more than 7.00; in experiment [2], 6.00 to 7.00; in experiment [3], less than 6.00. Further, the GI50 in experiment [1] was in the range of 0.1 to 1 µM.

Turning to `C#Cc1cccc2cccc(-c3ncc4c(N5CC6CCC(C5)N6)nc(OC[C@@H]5C[C@H](N6CCN(CC7CCN(c8cccc9c8C(=O)N(C8CCC(=O)NC8=O)C9=O)CC7)CC6)CN5C)nc4c3F)c12` (stereo partly drawn) [Compound 6, 4-(4-((4-((3S,5S)-5-(((4-(3,8-diazabicyclo[3.2.1]octan-3-yl)-7-(8-ethynylnaphthalen-1-yl)-8-fluoropyrido[4,3-d]pyrimidin-2-yl)oxy)methyl)-1-methylpyrrolidin-3-yl)piperazin-1-yl)methyl)piperidin-1-yl)-2-(2,6-dioxopiperidin-3-yl)isoindoline-1,3-dione hydrochloride], the pIC50 against KRAS(G12D)/SOS1 is more than 7.00; in experiment [2] it was less than 6.00; in experiment [3] it was less than 6.00. In addition, in experiment [1], the GI50 is more than 1 µM.
